In US7625887B2, “Receptor agonists” (Takeda Pharmaceutical Company Limited, priority 2003, dated 2009):

Columns and labels:
[1] = tested on: THP-TGR5 cells; test: suppression of LPS induced TNF α secretion in THP-TGR5 cells; format: cell-based, human; settings: non-addition: 11 with LPS, 2.7 without LPS
Procedure: TGR5 high expression cells were established by introducing TGR5 gene into human macrophage cells line THP-1. According to a conventional method, pcDNA-TGR5 incorporating cDNA of human TGR5 in pcDNA3.1 (Invitrogen) was prepared. Then, THP-1 was cultured in a medium (RPMI1640 10% FBS), and pcDNA-TGR5 was introduced thereinto using lipofectamine (Gibco BRL) according to conventional methods. Thereafter, G418 (Gibco BRL) was added to the medium to select resistant strains, and cells line, THP-TGR5 that expresses TGR5 stably and highly was established.
THP-TGR5 thus obtained was diluted to a concentration of 1×10^5/well and cultured overnight in a 96 well plate in the presence of 10^−8M phorbol ester (Wako Pure Chemical Industries, Ltd.). THP-TGR5 after culture was cultured for 1 hr in a medium containing a test compound or a control medium (0.1 ml) free of a test compound, 0.1 ml of a medium containing the same concentration of the test compound or a control medium free of the test compound, each of which containing LPS for induction of TNF α secretion was added (concentration at the time of addition 50 ng/ml) and the mixture was incubated at 37° C. under 5% CO2 for 14 hrs. The culture supernatant was collected and the TNF α content was measured with the growth suppressing effect on the TNF sensitive cell line L929 (RIKEN Institute) as an index.
L929 cells were seeded in a 96 well plate at 1.2×10^4/well and incubated overnight at 37° C. under 5% CO2. The obtained culture product was cultured overnight in a medium (phenol red free Dulbecco's Modified Eagle Medium (Invitrogen) supplemented with 10% fetal bovine serum (Invitrogen), 100 U/ml penicillin and 100 μg/ml streptomycin), which contained the aforementioned THP-TGR5-containing culture supernatant and 2 μg/ml Actinomycin D (Wako Pure Chemical Industries, Ltd.). The TNF α content was determined by measuring the growth of the L929 cells in the obtained culture product using a Cell Counting Kit-8 (Wako Pure Chemical Industries, Ltd.). As the standard sample, human recombinant TNF α (Genzyme) was used.

[2] = tested on: NCI-H716 cells; test: GLP-1 secretion from NCI-H716 cell line; format: cell-based, human; settings: 2 hrs, secretion amount in Base was 100%
Procedure: NCI-H716 cells secrete Glucagon-like peptide-1 (GLP-1). GLP-1 is a peptide useful for controlling blood glucose level because it acts on the pancreas to cause secretion of insulin and the like. In the same manner as in Experimental Example 9, NCI-H716 (ATCC) was seeded in a 96 well plate and, after incubation for 2 days, used for the following secretion test. As a buffer for secretion test, modified Krebs-Ringer bicarbonate buffer (KRBH, 116 mM NaCl, 4.7 mM KCl, 1.2 mM KH2PO4, 1.2 mM MgSO4, 2.5 mM CaCl2, 25 mM NaHCO3, 24 mM HEPES, pH 7.3) supplemented with glucose 5.5 mM and BSA 0.1% was used. The cells were washed once with the buffer for secretion test, preincubated at 37° C. under 5% CO2, bile acid diluted with the buffer for secretion test was added and the cells were cultured at 37° C. under 5% CO2 for 2 hrs. The cell culture supernatant was collected, cryopreserved and the GLP-1 content in the supernatant was measured using a GLP-1 measurement EIA kit (Linco) The results are shown in Table 9. In the Table, Base means non-addition of a test compound.

[3] = tested on: NCI-H716 cells; test: intracellular cAMP production increasing action in NCI-H716 cells; format: cell-based, human; settings: 2 hrs, production amount in TLCA (50 μM) was 100%, Base 11
Procedure: NCI-H716 (ATCC) was suspended in a medium (Dulbecco's Modified Eagle Medium (DMEM, Invitrogen) supplemented with 10% fetal bovine serum (Invitrogen), 100 U/ml penicillin and 100 μg/ml streptomycin), seeded in a 96 well plate, cultured for 2 days and used for cAMP production assay. As a cAMP assay buffer, modified Krebs-Ringer bicarbonate buffer (KRBH, 116 mM NaCl, 4.7 mM KCl, 1.2 mM KH2PO4, 1.2 MM MgSO4, 2.5 mM CaCl2, 25 mM NaHCO3, 24 mM HEPES pH 7.3), supplemented with glucose 5.5 mM, bovine serum albumin (BSA) 0.1%, and 3-isobutyl-1-methylxanthine (IBMX, Sigma) 1 mM, was used. The cells were washed once with cAMP assay buffer. Bile acids (50 μM) diluted with cAMP assay buffer or the compounds of the present invention (10 μM) were added thereto and the cells were incubated for 2 hrs. The culture supernatant was discarded, and the cAMP production amount was measured by cAMP Screen System (ABI). In the Table, Base means non-addition of a test compound.

[4] = biological target: T1, human TGR5 (Homo sapiens, UniProt Q8TDU6); test: cAMP production increasing activity in human TGR5 expressing CHO cells; format: cell-based; settings: test compound 1 μM, 30 min; 1 μM lithocholic acid = 100%, no addition = 0%; average of 3 groups
T1 construct: expressed in transfected cells; host or cells: CHO cells
T1 sequence (Q8TDU6 1-330): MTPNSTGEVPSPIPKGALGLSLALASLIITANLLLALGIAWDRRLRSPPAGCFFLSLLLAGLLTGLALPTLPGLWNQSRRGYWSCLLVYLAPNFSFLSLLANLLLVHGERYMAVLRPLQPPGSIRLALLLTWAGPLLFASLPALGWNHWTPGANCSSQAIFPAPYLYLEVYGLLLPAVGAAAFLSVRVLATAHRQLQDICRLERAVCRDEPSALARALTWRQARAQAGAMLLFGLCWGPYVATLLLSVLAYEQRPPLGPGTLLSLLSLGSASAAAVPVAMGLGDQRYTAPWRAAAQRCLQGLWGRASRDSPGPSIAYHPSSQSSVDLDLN
Procedure: As the assay buffer, Hank's balanced salt solution (HBSS, Invitrogen) supplemented with 0.1% bovine serum albumin (BSA, Sigma) and 0.5 mM 3-isobutyl-1-methylxanthine (IBMX, Sigma) was used. A test compound sample (1 μM) diluted with the assay buffer was added to the cells. The cells were incubated at 37° C. for 30 min. and the supernatant was suctioned. The intracellular cAMP amount increased by the stimulation of the test compound was quantitatively determined using a HitHunter™ EFC Cyclic AMP Chemiluminescence Assay Kit (ABI) kit.

[5] = tested on: mock CHO cells free of human TGR5 expression; test: cAMP production increasing activity in mock CHO cells free of human TGR5 expression; format: cell-based; settings: average of 3 groups
Procedure: As the assay buffer, Hank's balanced salt solution (HBSS, Invitrogen) supplemented with 0.1% bovine serum albumin (BSA, Sigma) and 0.2 mM 3-isobutyl-1-methylxanthine (IBMX, Sigma) was used. The cells were washed twice with the assay buffer and preincubated at 37° C. for 30 min. The cells were washed twice, and test compound samples (10 μM) diluted with the assay buffer to various concentrations were added. The cells were incubated at 37° C. for 20 min. The culture supernatant was discarded, and the cAMP production amount was measured using a cAMP Screen System (ABI).

[6] = biological target: T2, rat TGR5 (Rattus norvegicus, UniProt Q80T02); test: cAMP production increasing activity in rat type TGR5 expressing CHO cells; format: cell-based; settings: 0.5 h, read-out: cAMP producing activity (control %)
T2 construct: expressed in transfected cells; host or cells: CHO cells
T2 sequence (Q80T02 1-329): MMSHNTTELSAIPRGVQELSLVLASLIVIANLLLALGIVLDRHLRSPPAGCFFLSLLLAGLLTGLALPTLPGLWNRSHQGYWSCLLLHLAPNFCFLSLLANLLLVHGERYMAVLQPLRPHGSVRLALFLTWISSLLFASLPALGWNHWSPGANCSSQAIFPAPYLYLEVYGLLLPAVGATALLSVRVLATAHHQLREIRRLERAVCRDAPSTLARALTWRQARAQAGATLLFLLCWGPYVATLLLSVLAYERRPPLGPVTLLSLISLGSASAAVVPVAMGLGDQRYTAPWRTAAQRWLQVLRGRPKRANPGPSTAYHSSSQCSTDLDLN
Procedure: (§1) After culture, the cells were detached with 0.5 mM EDTA/PBS, washed with PBS, and suspended in Buffer 1 (HBSS+0.1% BSA, 25 mM HEPES pH 7.3, 0.5 mM IBMX) at a density of 1×10^7 cells/ml. The obtained cell suspension (460 μl), anti-cAMP acceptor beads (23 μl) of AlphaScreen cAMP assay kit (Perkin Elmer) and Buffer 1 (667 μl) were mixed and dispensed to a white 96 well plate (Costar) by 10 μl. Then, a test compound diluted with Buffer 1 was added to each well by 10 μl. At this time, one row of the plate was free of the cell suspension but added with anti-cAMP acceptor beads (9 μl) and Buffer 1 (441 μl) alone, and serial dilutions of cAMP were added instead of the test compound and used as the standard. A mixture of the cell suspension and the test compound contained in the plate was allowed to react at room temperature for 30 min. […] The plate was shaken at room temperature for 2.5 hrs and fluorescence intensity was measured by Fusion α (Parkin Elmer), and the cAMP concentration of each well was calculated using the cAMP standard on each plate.

[7] = tested on: guinea pig TGR5; test: cAMP production increasing activity in guinea pig TGR5 expressing CHO cells; format: cell-based; settings: test compound 2 μM; 10 μM lithocholic acid = 100%; average of 3 groups
Procedure: as §1, with “The guinea pig type TGR5 expressing CHO cells were seeded in one 150 cm^2 flask at 1×10^7 cells, and cultured overnight at 37° C., 5% CO2. After” for “After”

[8] = biological target: T1, human TGR5; test: cAMP production increasing activity in human TGR5 expressing CHO cells; format: cell-based; settings: read-out: EC50 value (concentration necessary to make the cAMP production amount 50%)

C[C@H](CCC(=O)O)[C@H]1CC[C@H]2[C@@H]3CC[C@@H]4C[C@H](O)CC[C@]4(C)[C@H]3CC[C@]12C [lithocholic acid, reference compound]
TNF α ([1]; bile acid 50 μM): 1.1 ng/mL
GLP-1 secretion increase (%) ([2]; bile acid 25 μM): 121%
cAMP production increasing activity (%) ([3]; bile acid 50 μM): 107%

COC(=O)NCc1cccc([C@@H]2O[C@H](CC(=O)NCc3ccccc3F)C(=O)N(CC(C)(C)C)c3ccc(Cl)cc32)c1 (relative stereo) [Reference Example 6, methyl [3-[3,5-trans-7-chloro-3-[2-[(2-fluorobenzyl)amino]-2-oxoethyl]-1-neopentyl-2-oxo-1,2,3,5-tetrahydro-4,1-benzoxazepin-5-yl]benzyl]carbamate]
TNF α ([1]; test compound 10 μM): 0.32 ng/mL
cAMP production increasing activity (control %) [4]: 98 control %

CCOC(=O)CC1C(=O)N(CC(C)(C)C)c2ccccc2CN1C(=O)OC(C)(C)C (stereo not shown) [Reference Example 1B, tert-butyl 3-(2-ethoxy-2-oxoethyl)-1-neopentyl-2-oxo-1,2,3,5-tetrahydro-4H-1,4-benzodiazepine-4-carboxylate]
TNF α ([1]; test compound 10 μM): 0.63 ng/mL

C=C[C@@]1(C)CC(=O)[C@]2(O)[C@@]3(C)[C@@H](O)CCC(C)(C)[C@@H]3[C@H](O)[C@H](OC(C)=O)[C@@]2(C)O1 [Forskolin, reference compound]
cAMP production increasing activity ([5]; Experimental Example 2, Forskolin 2 μM, Base 0.85): 4.02 pmol
cAMP production increasing activity ([5]; Experimental Example 4, test compounds 2 μM, Base 0.28): 5.68 pmol
cAMP production increasing activity ([5]; Experimental Example 5, test compounds 2 μM, Base 0.19): 3.01 pmol

COC(=O)NCc1cccc(C2OC(CC(=O)NCc3ccccc3F)C(=O)N(CC(C)(C)COC(C)=O)c3ccc(Cl)cc32)c1 (stereo not drawn) [Example 46, 3-[3,5-trans-7-chloro-3-[2-[(2-fluorobenzyl)amino]-2-oxoethyl]-5-[3-(methoxycarbonylaminomethyl)phenyl]-2-oxo-2,3-dihydro-4,1-benzoxazepin-1(5H)-yl]-2,2-dimethylpropyl acetate]
activation at 2 µM [6]: 104%
cAMP producing activity (control %) [7]: 77 control %
GLP-1 secretion increase (%) ([2]; 5 μM): 165%
cAMP production increasing activity (%) ([3]; 10 μM): 112%
EC50 [8]: < 100 nM

CC(=O)NCc1cccc([C@@H]2O[C@H](CC(=O)NCc3ccccc3F)C(=O)N(CC(C)(C)C)c3ccc(Cl)cc32)c1 (relative stereo) [Reference Example 3, 2-[3,5-trans-5-[3-(acetylaminomethyl)phenyl]-7-chloro-1-neopentyl-2-oxo-1,2,3,5-tetrahydro-4,1-benzoxazepin-3-yl]-N-(2-fluorobenzyl)acetamide]
TNF α ([1]; test compound 10 μM): 0.33 ng/mL
cAMP production increasing activity (control %) [4]: 85 control %
